Laboratory results as given in US7786152B2, “Compound” (priority 2002, dated 2010).

What was measured:
[1] = molecular target: T1, human hepatic microsomal 11β-HSD1 (Homo sapiens, UniProt P28845); assay: 11β HSD1 TLC format assay with human hepatic microsomes; type: biochemical; details: Lineweaver-Burke, 10 μg microsomal protein, 30 minutes at 37° C., read-out: apparent Km for cortisone
T1 construct: the enzyme source, native hepatic enzyme compared to recombinant enzyme; tissue XenoTech H0610/Lot 0210078; host or cells: human hepatic microsomes
T1 sequence (P28845 whole entry): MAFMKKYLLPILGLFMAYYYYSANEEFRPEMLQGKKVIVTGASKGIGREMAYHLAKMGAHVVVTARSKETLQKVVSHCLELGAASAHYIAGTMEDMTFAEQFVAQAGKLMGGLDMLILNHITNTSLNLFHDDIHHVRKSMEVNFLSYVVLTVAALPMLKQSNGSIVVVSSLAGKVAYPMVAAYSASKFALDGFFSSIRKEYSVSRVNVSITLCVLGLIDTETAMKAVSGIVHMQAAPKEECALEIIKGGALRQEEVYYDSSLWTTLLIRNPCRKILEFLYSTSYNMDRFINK
Procedure: 11β-HSD1 activity in rat and human hepatic microsomes was evaluated, to determine the minimum microsomal protein concentrations required for measurement of enzyme activity. […] The assay was performed in Buffer 2 and the cortisone concentration used was 2 μM containing 0.5 μCi [^3H]-cortisone per incubation. Microsomes were tested at concentrations ranging from 50 μg to 400 μg protein per incubation in a final incubation volume of 100 μl in glass tubes. Samples were incubated for 1 h in a shaking water bath at 37° C. and the assay was stopped by addition of 1 ml ethyl acetate. To correct for recovery, 50 μl [^14C]-cortisol was added to the samples followed by 200 μl 0.05% CaCl2. The samples were vortex mixed and centrifuged as described above. The upper organic phase was removed and dried down, and the residue dissolved in 100 μl methanol and 50 μl aliquots were spotted onto TLC plates, which were run as described above. Samples were counted on a TriCarb liquid scintillation counter using a dual label programme. Recovery efficiency was determined from the DPM obtained in 50 μl [^14C]-cortisol solution, which was counted with the samples.
Lower human microsome protein concentrations were evaluated; 3.7 μg to 100 μg per sample. The time course of activity was also determined, from 0 to 60 minutes at 37° C. The extraction conditions were as described above. […]

Human 11βHSD1 = molecular target: T2, Human 11βHSD1 (Homo sapiens, UniProt P28845); assay: 11β HSD1 cortisol radioimmunoassay (RIA) with human hepatic microsomes; type: biochemical; details: RIA format; Lineweaver-Burke; Buffer 3, 10 μg/well microsomal protein, 30 min; read-out: apparent Km
T2 construct: the enzyme source, native hepatic enzyme compared to recombinant enzyme; tissue XenoTech H0610/Lot 0210078; host or cells: human hepatic microsomes
T2 sequence (P28845 whole entry): as above
Procedure: Biological Assay Development Using Human 11β-Hydroxysteroid Dehydrogenase Type 1. Standard Operating Procedure for the 11β-Hydroxysteroid Dehydrogenase Type 1 Cortisol Radioimmunoassay. 11β HSD1 Cortisol RIA
Enzyme assay buffer: 30 mM Tris-HCL, pH 7.2 containing 1 mM EDTA
Antibody binding buffer: 50 mM Tris-HCL, pH 8, containing 0.1 M NaCl and 0.1% gelatin
Dilute into assay buffer 1 in 25. Also dilute neat DMSO 1 in 25 into assay buffer for controls.
Dilute this 1 in 50 into assay buffer.
Prepare NADPH as a 1.8 mg/ml solution in assay buffer.
Mix these 3 solutions 1:1:1 to make a solution of sufficient volume for 25 μl additions to each sample. Add 0.5 μCi tritiated cortisone per 25 μl and mix the solution well.
Microsome preparation: Dilute stock 20 mg/ml solution 1 in 100 with assay buffer.
Dextran coated charcoal preparation: Make a 20 mg/ml solution in antibody binding buffer and chill on ice.
Enzyme assay: To a u-bottom polypropylene 96 well plate add:
25 μl compound dilution or diluted DMSO to controls, NSB's and blanks
10 μl 1 mM GA in DMSO (enzyme stop solution) to blanks
25 μl substrate mixture to all samples
50 μl diluted microsomes to all samples
Incubate plate for 30 min at 37° C. shaking
Add 10 μl enzyme stop solution to all wells except the blanks
Add 100 μl antibody solution to all wells except the NSB's, add antibody binding buffer to these wells
Incubate at 37° C. for 1 h
Chill plate on ice for 15 min
Add 50 μl/well charcoal solution and mix with an 8-channel pipette (4-5 aspirations)
Centrifuge at 4° C., 2000×g for 15 min
Transfer 100 μl supernatant into an Optiplate, also add 25 μl substrate mixture to 2 empty wells to indicate counting efficiency
Add 200 μl Microscint-40 to all wells and count on a Topcount
The 11β HSD1 enzyme assay was carried out following the standard operating procedure described above in u-bottom polypropylene 96 well plates or 1.5 ml Eppendorf tubes as indicated for each experiment. Subsequent to stopping the enzyme reaction, 100 μl antibody prepared in buffer 3 unless otherwise indicated was added to test samples and 100 μl buffer 3 was added to the NSB samples. The samples were incubated for 1 hour at 37° C. and the chilled on ice for 15 mins. Dextran coated charcoal (50 μl/sample) prepared to the indicated concentration in buffer 3 was added and the samples were mixed (vortex for tubes and aspiration 5 times with an 8-channel pipette for 96 well plates) and chilled for a further 10 min. The samples were centrifuged at 2000×g for 15 min at 4° C. to pellet the charcoal. Aliquots of the supernatant (100 μl) were transferred to an Optiplate and counted on the Topcount in 150-200 μl Microscint 40. In some experiments, aliquots of supernatant were transferred to scintillation vials and counted on the Tricarb LSC in 5 ml Ultima Gold scintillant.
Substrate saturation was examined. The enzyme assay was carried out exactly described in the methods section, in Buffer 3 with 10 μg/well microsomal protein and with [cold cortisone] as indicated. [3H]-cortisone was 0.5 μCi/sample throughout. The reaction was stopped after 30 min by the addition of 10 μl stop solution. The RIA was carried out exactly as indicated in the methods section.
It is reported that DMSO can both increase and reduce microsomal enzyme activity, depending on the concentration, presumably due to effects on the microsomal membranes.

In the case of `C[C@]12CCC(=O)C=C1CC[C@@H]1[C@@H]2C(=O)C[C@@]2(C)[C@H]1CC[C@]2(O)C(=O)CO` [cortisone, reference compound], the Km [1] is reported as 0.66 µM and the Km (Human 11βHSD1) is reported as 0.7 µM.
